Assay results: US12208080B2, “Compositions and methods for modulation of extracellular vesicle release and treatment of neurological disorders” (GEORGE MASON RESEARCH FOUNDATION, INC., priority 2018, dated 2025)

Test system: HIV-1 infected monocytes (U1)
Test: RT-qPCR of intracellular HIV-1 TAR and env RNA in U1 cells (viral transcription)
Format: cell-based
Conditions: for intracellular TAR RNA (HIV-1 transcription) / intracellular env RNA (HIV-1 transcription): 1, 5, 20, 50 μM, 5 days, FIG. 4A; for intracellular TAR RNA / intracellular env RNA: CBD 1, 5, 10 μM, THC 1, 5, 10 μg/mL every day for 5 days, FIG. 15A
Experimental: HIV-1 infected monocytes (U1) were treated with CBD (1, 5, 20, and 50 μM) or THC (1, 5, 20, and 50 μM) for 5 days. Total RNA was isolated from cell pellets and analyzed by RT-qpCR for TAR RNA and env RNA. Student's t-test was used to determine significance (***=p<0.001, and**=p<0.01).
FIGS. 15A-15C are graphs and gels showing cannabidiols lower intracellular viral transcription and downstream viral products. U1 cells (1×10^6) were treated with a titration of CBD (1, 5, 10 μM) and THC (1, 5, 10 μg/mL) every day for 5 days. A) Intracellular RNA was isolated and analyzed through RT-qPCR for HIV-1 viral transcripts TAR and env. Each bar represents an average of three independent replicates. B) U1 cells (2×10^6) were treated with a titration of CBD (1, 5, 10 μM) every day for 5 days. Cells pellets were lysed, run through SDS-PAGE, and western blotted for (p-)/NF-κB, autophagosomal markers (p63, LC3), EV biogenesis marker VPS4, viral markers (gp120, Nef, p24), and Actin. C) U1 cells (5×10^6) were treated±CBD (10 μM) and Flavopiridol hydrochloride (50 nM; indicated as Flavo) and incubated for the following time points: 0 minutes, 2 hours and 6 hours. Cells were cross-linked with 1% formaldehyde solution and ChIP-ed for IgG and Pol II. ChIP DNA samples were analyzed via qPCR for TAR and env. Student's t-test was used for statistical analysis, where *p-value≤0.05; **p-value≤0.01, ***p-value≤0.001.
To determine if the observed reduction in EV-associated viral RNA was a result of a decrease in HIV-1 transcription rather than an alteration in the packaging of these viral RNAs into EVs, intracellular RNA was analyzed to assess for changes HIV-1 transcription. […] The differences in inhibition of short transcripts imply targeting at different stages of transcription with CBD inhibiting transcription initiation and THC inhibiting transcription elongation. These differences in transcriptional regulation can be further analyzed using a three-state L TR mathematical model to depict changes in viral RNA and protein production over extended periods of time (FIG. 4B).
For the isolation of total RNA, cells were harvested, washed once in 1×PBS without calcium or magnesium and resuspended in 50 μL of 1×PBS. For the isolation of total RNA from EVs, Nanotrap particles were incubated and harvested as described above, then resuspended in 50 μL of 1×PBS without calcium or magnesium. Total RNA was isolated from cell pellets and NT80/82 pellets bound with EVs using Trizol Reagent (Invitrogen) as described by the manufacturer's protocol. cDNA was generated using GoScript Reverse Transcription Systems (Promega) using Envelope Reverse: (5′-TGGGATAAGGGTCTGAAACG-3′ (SEQ ID NO:1); Tm=58° C.), and TAR Reverse: (5′-CAACAGACGGGCACACACTAC-3′ (SEQ ID NO:2), Tm=58° C.) primers. Serial dilutions of DNA from a CEM T-cell line containing a single copy of HIV-1 LAV provirus per cell (8E5 cells) were used as the quantitative standards. cDNA samples (2 μL/well) were plated into a Master Mix (18 μL/well) containing IQ Supermix (Bio-Rad), TAR Forward Primer (5′-GGTCTCTCTGGTTAGACCAGATCTG-3′ (SEQ ID NO:3)), TAR Reverse Primer (5′-CAACAGACGGGCACACACTAC-3′ (SEQ ID NO:4)), and TAR Probe (5′56-FAM-AG CCTCAATAAAGCTTGCCTTGAGTGCTTC-36-TAMSp-3′ (SEQ ID NO:5)). RT-qPCR conditions were as follows: one cycle for 2 min at 95° C. followed by 41 cycles of 95° C. for 15 s and 58° C. for 40 s. Reactions were performed in triplicate using the BioRad CFX96 Real Time System. Quantitation was determined using cycle threshold (Ct) values relative to the 8E5 standard curve using the BioRad CFX Manager Software. Analysis of generated raw data was analyzed using Microsoft Excel 2016.
Therefore, U1 monocytes were treated with a titration of CBD (1, 5, 10 μM) and THC (1, 5, 10 μg/mL) every day for 5 days. Total RNA was isolated from the harvested cell pellets followed by RT-qPCR analysis of 3 independent replicates for TAR and env RNAs.

[1] = 10 μM every day for 5 days, FIG. 15A lane 4

SMILES	intracellular TAR RNA (HIV-1 transcription)	intracellular env RNA (HIV-1 transcription)	intracellular TAR RNA	intracellular env RNA	decrease in intracellular TAR RNA compared to untreated control [1]	decrease in intracellular env RNA compared to untreated control [1]
CCCCCc1cc(O)c2c(c1)OC(C)(C)[C@@H]1CCC(C)=C[C@@H]21 [THC, Δ9-tetrahydrocannabinol]	only resulting in a decrease in the env RNA	decrease in the env RNA	not TAR RNA	only treatment with the highest concentration of THC resulted in a significant decrease	–	–
C=C(C)[C@@H]1CCC(C)=C[C@H]1c1c(O)cc(CCCCC)cc1O [CBD, 2-[1R-3-methyl-6R-(1-methylethenyl)-2-cyclohexen-1-yl]-5-pentyl-1,3-benzenediol]	decrease of both transcripts	decrease of both transcripts	dose-dependent decrease	dose-dependent decrease	95%	96%
